Source: US7776324B2, “Cancer vaccine” (Malaysian Palm Oil Board (MPOB), priority 2006, dated 2010)

System: IFN-γ
Test: Serum IFN-γ levels following tocotrienol supplementation in mouse models
Assay type: in vivo

## tocotrienol
  serum levels of interferon-gamma (IFN-γ): significantly increased
